The text below walks through data of patent US4413126A, “Preparation of isoquinoline derivatives useful as immune regulants” (Eli Lilly and Company, priority 1982, dated 1983).

One experiment has as its system GVH reaction. The experiment is described as follows: Graft-Versus-Host (GVH) Reaction. The experiment is classed as in vivo, mouse (C57BL×C3H). The settings on record: for minimal effective dose: 312 h, read-out: Endpoint Dose (p < 0.05): lowest drug dose significantly lowering the spleen/body weight ratio. Here is the method: In this test, parental (C57BL) mouse spleen cells are injected into mice of an F1 hybrid strain (C57BL×C3H). […] As a consequence, the recipient's spleen becomes enlarged. Immunosuppression prevents or reduces this enlargement. Thus, spleen weights provide a measure of the GVH reaction and its reduction under immunosuppression.
A modification of Simonsen's original procedure (Ann. N.Y. Acad. Sci., 73, 834 (1958) was employed. Large crops of spleen cells were obtained, without the generally employed manual teasing of spleens, by using Waring blendors with the cutting blades reversed. Two six-second blending periods buffeted the spleens (batches of 25 C57BL spleens in 25-ml. saline) sufficiently to free the cells from the connective tissue. The latter was removed by filtration through several thicknesses of cheesecloth. Cell suspensions prepared in this fashion were standardized, by means of Levy-Hausser chamber counts, to contain 6×10^8 nucleated cells per ml. Groups of ten 16-18 gram C57BL×C3H mice were injected intraperitoneally with 1 ml. of the donor cell suspension. The compounds were administered either orally (P.O.) or subcutaneously (S.C.) in a vehicle composed of saline containing 0.125% methylcellulose and 0.2% emulphor, commencing 3 days prior to cell injection and continuing daily for 13 days. Control animals received only cells and vehicle. The spleens were removed and weighed 10 days following cell injection, and the mg. spleen/gram body weight was calculated.
The compounds were administered at several dose levels and the mean spleen/body weight ratio at each dose level was compared to the control group which received only the vehicle. The p values (by Student's two-tail t Test) were determined as compared to the control group. […] The results obtained in the graft-versus-host reaction with the compounds of this invention and standard compounds are summarized in Table III.

The next experiment deals with antibody titer. The experiment is described as follows: Individual Serum Assay Procedure (mouse hemagglutinin, oral). The experiment is classed as in vivo, mouse (Swiss). Particulars: read-out: Endpoint Dose (p < 0.05): lowest drug dose significantly lowering antibody titer.
The test system of the next experiment is antibody production. Briefly: Mouse Hemagglutinin assay, oral administration (pooled serum assay procedure). It is filed as in vivo, mouse (Swiss). The settings on record: P.O., nine daily doses; for minimal effective dose: Mus musculus, po, read-out: MED (minimum effective dose: lowest drug dose producing 75 percent or greater antibody suppression). Here is the method: Groups of five 20-gram, male, random-bred, Swiss mice received intravenous injections of 5×10^7 sheep red blood cells. The cells for these injections were prepared from lamb's blood (collected in Alsever's solution) by washing three times with 0.85 percent saline. Nine daily doses of each compound to be tested, solubilized in polyethylene glycol 400, were administered orally in 0.1 ml. doses, commencing three days prior to red blood cell injection. Several dose levels of each compound were employed, at 2-fold increments. A control group of mice, receiving a red blood cell injection and nine daily doses of vehicle instead of drug, was included. Six days after the antigen injections, the mice were bled by cardiac puncture and the blood from each 5-mouse group pooled. […] Following incubation of the trays for 3 hours at 37° C., the hemagglutination patterns were graded.

The subject of experiment [1] is adjuvant-induced arthritis. The experiment is described as follows: Adjuvant-induced Arthritis Test in Rats: uninjected paw volume inflammation. The experiment is classed as in vivo, rat (Lewis-Wistar). The settings on record: days 11 through 25.
Experiment [2] has as its system adjuvant-induced arthritis. Briefly: Adjuvant-induced Arthritis Test in Rats: bone damage by X-ray. It is filed as in vivo, rat (Lewis-Wistar). The settings on record: X-ray day 25.
The mark [3] stands for this setting: po, P.O., daily for 13 days, mouse.
[4] abbreviates: P.O., ten daily doses, mouse, individual serum.

Each structure is given as a SMILES string. Counter-ions that a name gives are not always drawn. Like-named read-outs stand apart in the source and are kept apart here. A value given as a limit tells only on which side of the number the result lay.

Turning to `C[n+]1c2cc(C(F)(F)F)ccc2n2c(=O)c3cccc4cccc(c43)c21` [13-methyl-7-oxo-11-(trifluoromethyl)-7H-benzimidazo[2,1-a]benz[de]isoquinolinium 4-methylbenzenesulfonate], the minimal effective dose was 12.5 mg/kg with GVH reaction (Mus musculus, po); 12.5 mg/kg in the experiment on antibody titer (Mus musculus); 1.6 mg/kg in the experiment with antibody production.
As to `CC(C(=O)O)c1cccc(Oc2ccccc2)c1` (stereo not shown) [Fenoprofen, reference compound], the “% Inhibition of uninjected paw volume inflammation (AUC)” value in experiment [1] (Test 1, 40 mg./kg. P.O. × 24) was determined as 44.0%; in experiment [1] (Test 2, 40 mg./kg. P.O. × 24) it was 60.7%.
With `CN(Cc1cnc2nc(N)nc(N)c2n1)c1ccc(C(=O)N[C@@H](CCC(=O)O)C(=O)O)cc1` [Methotrexate, reference compound], the minimal effective dose in the experiment with GVH reaction (Mus musculus, po) worked out at 0.2 mg/kg.
Regarding `O=c1c2cccc3cccc(c32)c2nc3cc(Cl)ccc3n12` [11-chloro(p-toluenesulfonate salt)], in the experiment with antibody production, the “MED (minimum effective dose: lowest drug dose producing 75 percent or greater antibody suppression)” value was 6.25 mg./kg. × 9.
`O=c1c2cccc3cccc(c32)c2nc3ccc(C(F)(F)F)cc3n12` [10-trifluoromethyl, 10-(trifluoromethyl)-7H-benzimidazo[2,1-a]benz[de]isoquinoline-7-one]: the minimal effective dose is less than 25 mg/kg in the experiment on GVH reaction (setting [3]) and 25 mg/kg in the experiment on antibody production.
On to `Cn1cnc([N+](=O)[O-])c1Sc1ncnc2nc[nH]c12` [Azathioprine, reference compound], for which the “Endpoint Dose (p < 0.05): lowest drug dose significantly lowering the spleen/body weight ratio” value in the experiment on GVH reaction (P.O., daily for 13 days, mouse) came to 12.5 mg./kg. × 13. For the same compound, the minimal effective dose with antibody titer (setting [4]) and in the experiment with antibody production was 100 mg/kg throughout.
In the case of `O=c1c2cccc3cccc(c32)c2nc3ccc(Cl)cc3n12` [10-chloro, 10-chloro-7H-benzimidazo[2,1-a]benz[de]isoquinoline-7-one], the minimal effective dose in the experiment with antibody production stood at 3.1 mg/kg.
Same read-out and setting: the value for `O=c1c2cccc3cccc(c32)c2nc3cc(F)ccc3n12` [11-fluoro, 11-fluoro-7H-benzimidazo[2,1-a]benz[de]isoquinoline-7-one] was 12.5 mg/kg.
In the case of `O=c1c2cccc3cccc(c32)c2nc3cc(C(F)(F)F)ccc3n12` [11-trifluoromethyl, 11-(trifluoromethyl)-7H-benzimidazo[2,1-a]benz[de]isoquinoline-7-one], the “inhibition of bone damage, injected paws” value is listed as 68% in experiment [2] (Test 1 (100 mg./kg. P.O. × 24)) and 66% in experiment [2] (Test 2 (50 mg./kg. P.O. × 24)). In addition, the results for the “inhibition of bone damage, uninjected paws, compared to TB control group” value in experiment [2] (Test 1 (100 mg./kg. P.O. × 24)) and in experiment [2] (Test 2 (50 mg./kg. P.O. × 24)) were 94% and 88%, respectively. Further, the minimal effective dose was 12.5 mg/kg with GVH reaction (Mus musculus, po); less than 0.1 mg/kg in the experiment on GVH reaction (sc, S.C., daily for 13 days, mouse); 0.4 mg/kg in the experiment on antibody titer (setting [4]). Moreover, the “% Inhibition of uninjected paw volume inflammation (AUC)” value in experiment [1] (Test 1, 100 mg./kg. P.O. × 24) was found to be 85.8%; in experiment [1] (Test 2, 50 mg./kg. P.O. × 24) it was 55.9%. Moreover, in the experiment on antibody production, the “MED (minimum effective dose: lowest drug dose producing 75 percent or greater antibody suppression)” value was determined as 0.2 mg./kg. × 9.
Consider `O=c1c2cccc3cccc(c32)c2nc3cc(Cl)ccc3n12` [11-chloro, 11-chloro-7H-benzimidazo[2,1-a]benz[de]isoquinoline-7-one], for which the minimal effective dose in the experiment with GVH reaction (Mus musculus, po) amounted to 12.5 mg/kg; with antibody titer (setting [4]), 0.2 mg/kg. The “MED (minimum effective dose: lowest drug dose producing 75 percent or greater antibody suppression)” value in the experiment on antibody production amounted to 0.4 mg./kg. × 9.
Take `C[n+]1c2ccc(Cl)cc2n2c(=O)c3cccc4cccc(c43)c21`: the minimal effective dose in the experiment on antibody production is greater than 100 mg/kg.
With `O=c1c2cccc3cccc(c32)c2nc3cc(C(F)(F)F)ccc3n12` [11-trifluoromethyl(p-toluenesulfonate salt)], the “MED (minimum effective dose: lowest drug dose producing 75 percent or greater antibody suppression)” value with antibody production is 3.1 mg./kg. × 9.
As for `O=P1(N(CCCl)CCCl)NCCCO1` (stereo not shown) [Cyclophosphamide, reference compound], the minimal effective dose with GVH reaction (setting [3]) turned out to be 12.5 mg/kg.
For `C[n+]1c2ccc(C(F)(F)F)cc2n2c(=O)c3cccc4cccc(c43)c21`, in the experiment with antibody production, the minimal effective dose was 100 mg/kg.
As to `C[C@]12CCC(=O)C=C1CC[C@@H]1[C@@H]2C(=O)C[C@@]2(C)[C@H]1CC[C@]2(O)C(=O)CO` [Cortisone, reference compound], in the experiment on GVH reaction (setting [3]), the minimal effective dose was found to be 3.1 mg/kg.
Regarding `O=c1c2cccc3cccc(c32)c2nc3ccc(Br)cc3n12` [10-bromo, 10-bromo-7H-benzimidazo[2,1-a]benz[de]isoquinoline-7-one], the minimal effective dose in the experiment on antibody production stood at 12.5 mg/kg.
On the same count and under the same terms, the value for `C[n+]1c2cc(Cl)ccc2n2c(=O)c3cccc4cccc(c43)c21` was 100 mg/kg.
On to `O=c1c2cccc3cccc(c32)c2nc3cc(Br)ccc3n12` [11-bromo, 11-bromo-7H-benzimidazo[2,1-a]benz[de]isoquinoline-7-one], for which the values for the minimal effective dose in the experiment on GVH reaction (setting [3]), in the experiment with antibody titer (setting [4]) and in the experiment with antibody production were less than 25 mg/kg, 12.5 mg/kg and 1.6 mg/kg, respectively.
